Values joined by “and” are separate entries in the source; they are usually repeats but may differ in a detail not shown here. Identical values can stand only once.
Tested on: GEMS receptors with CBPA11 (BclXL–LD3 and BclXLhigh variants), STAT3-driven SEAP in HEK293T cells
Assay: GEMS SEAP reporter assay, CBPA11 (BclXLhigh, LD3-v and BclXL-v variants) with A-1155463
Type: cell-based
Parameters: key to Raw data (SEAP) / SEAP, replicate values / Raw data of Figure 5b / Raw data Figure 5e / Raw data of Independent repeat of CBPA11-v1 vs CBPA11-v1-LD3v3 / Raw data of Independent repeat of CBPA11-v3 vs CBPA11-v3-LD3v3 / Raw data of Figure 5b, CBPA11-v1-LD3v3 (SEAP reporter raw value, single replicate) / Raw data of Figure 5b, CBPA11-v1 (SEAP reporter raw value, single replicate): SEAP activity in U/L in culture supernatant
Source text: To rationally design a CBP responding to a chemical input, we used BclXL as the druglow receptor, LD3 as the designed binder and a designed BclXL variant as the drughigh receptor (referred to as BclXLhigh) to construct a CBP responsive to BclXL inhibitors (Fig. 4a). To design BclXLhigh, we used a multistate design computational protocol described elsewhere[26] […] Thus, BclXLhigh-v(1–3) were chosen as the functional drughigh receptors, resulting in three A-1155463-controlled CBPs (referred to as CBPA11-v(1–3)) (Fig. 4c–e).
HEK293T cells were seeded in a 96-well plate 24 h before transfection. The transfection mix in each well consisted of 3 ng of constitutive human CMV promoter driven mammalian STAT3 expression vector (PhCMV-STAT3-pA), 30 ng of STAT3-induced reporter expression (OStat3-PhCMVmin-SEAP-pA) and 50 ng of expression vectors for each GEMS receptor chain (PSV40-IgK-(drughigh receptor)-EpoRm-IL-6RBm-pA and PSV40-IgK-(druglow receptor-GGGGSX3-LD3)-EpoRm-IL-6RBm-pA). For the specific drughigh receptor and druglow receptor used in the different cellular assays, they are indicated as wild type or with mutations. Then, plasmid DNA was mixed with 50 μl opti-MEM (Thermo Fisher) and 600 ng of polyethyleneimine (Polysciences, catalog no. 24765-1). For drug treatment experiments, drugs were added 12 h post-transfection and incubated with cells for 24 h before the SEAP reporter detection assay.
SEAP activity (U l^−1) in cell culture supernatants was quantified by kinetic measurements at 405 nm (1 minute per measurement for 30 cycles) of absorbance increase due to phosphatase-mediated hydrolysis of para-nitrophenyl phosphate (pNPP).
Binding affinities of SPR drug competition assays were calculated using three-parameter nonlinear regression in GraphPad Prism (v.8.3.0). Representative data of cell assays are presented as individual values and mean values (bars). n = 3 refers to biological replicates. All IC50 or EC50 values of cell assays reported were calculated using four-parameter nonlinear regression ± s.d. Bandpass features of cutoff concentrations and Bandwidth90% were estimated based on the curve fitted using bell-shaped curve nonlinear regression in GraphPad Prism (v.8.3.0). […]
Supplementary Figure 4: Design, screening and validation of BclXLhigh variants. a) Screening of BclXLhigh variants in the GEMS platform. […]
Dissociation constant measurement of BclXLhigh-v(1-3) and LD3. Equilibrium curves are fitted using […]
BclXLhigh-v1 (purple), BclXLhigh-v2 (blue), […]
a) Bcl2high-based bandpass filter designs were developed and to respond to different concentrations of […]
corresponding inhibitor. c) Screening of Bcl2high-based bandpass filter variants in the GEMS platform.
The designed binder LD3 was fused to the druglow-receptor (PSV40-IgK-Bcl2-LD3-EpoRm-IL-6RBm-pA) in one EpoR chain and Bcl2high variants with the insensitive Bcl2 (iBcl2) as control in the other EpoR chain (PSV40-IgK-Bcl2high-EpoRm-IL-6RBm-pA). HEK293T cells were transfected with indicated […]
the mean of six biological replicates ± s.d., overlaid with a scatter dot plot of the original data points.
(1 picture or pasted object on this page, not shown here)
Supplementary Figure 6: Binding affinities and drug resistances of Bcl2high-v(2,4,5) assessed by […]
a) Measurement of dissociation constants for Bcl2high-v(2,4,5) and LD3 interactions. Equilibrium curves […]
Bcl2high-v(2,4,5) measured by SPR. 5 μM of Bcl2 or indicated variants were mixed with 10 μM of […]
Bcl2high-v2 (red), Bcl2high-v4
Supplementary Figure 7: Screening of LD3 variants in CBPA11-v(1-3) and raw data of CBPA11-v(1,3) with LD3-v3 variant. a-c) Screening of LD3 and LD3-v(1-3) variants in complex with BclXL for more sensitive CBPA11-v1 (a), CBPA11-v2 (b), CBPA11-v3 (c) in the GEMS platform. The LD3 variants replaced the role of LD3 (PSV40-IgK-BclXL-LD3-v(1-3)-EpoRm-IL-6RBm-pA) in one EpoR chain and BclXLhigh-v(1-3) in the other EpoR chain (PSV40-IgK-BclXLhigh-V(1-3)-EpoRm-IL-6RBm-pA). HEK293T cells were transfected with […]

[1] = CBPA11-v1-LD3v3, A-1155463 1 nM
[2] = CBPA11-v1-LD3v3, A-1155463 3.18 nM
[3] = CBPA11-v1-LD3v3, A-1155463 10 nM
[4] = CBPA11-v1-LD3v3, A-1155463 31.8 nM
[5] = CBPA11-v1-LD3v3, A-1155463 100 nM
[6] = CBPA11-v1-LD3v3, A-1155463 318 nM
[7] = CBPA11-v1-LD3v3, A-1155463 1000 nM
[8] = CBPA11-v1-LD3v3, A-1155463 3180 nM
[9] = CBPA11-v1-LD3v3, A-1155463 10000 nM

For CN(C)CC#Cc1ccc(OCCCc2sc(N3CCc4cccc(C(=O)Nc5nc6ccccc6s5)c4C3)nc2C(=O)O)c(F)c1 [A-1155463], the “Normalized data of Figure 5b” value [1] was 12.3584 and 11.9384 and 10.5903, the “Raw data of Figure 5b” value [1] was 17.44 and 15.4815 and 15.2319 and the “Raw data of Independent repeat of CBPA11-v1 vs CBPA11-v1-LD3v3” value (shortened to “Raw data … vs CBPA11-v1-LD3v3”) [1] was 31.801 and 28.5095 and 29.309. The “Raw data … vs CBPA11-v1-LD3v3” value (CBPA11-v1-LD3v3, A-1155463 3.16 nM) was 34.9091 and 28.121 and 21.957, the “Normalized data of Figure 5b” value [2] was 13.5394 and 12.5226 and 10.9319 and the “Raw data of Figure 5b” value [2] was 19.1065 and 16.239 and 15.7232. For the same molecule, the “Normalized data of Figure 5b” value [3] was 25.1514 and 28.7722 and 29.2973, the “Raw data of Figure 5b” value [3] was 35.4931 and 37.3111 and 42.1378 and the “Raw data … vs CBPA11-v1-LD3v3” value [3] was 179.972 and 131.844 and 140.391. The “Raw data … vs CBPA11-v1-LD3v3” value (CBPA11-v1-LD3v3, A-1155463 31.6 nM) was 226.429 and 187.26 and 191.409, the “Normalized data of Figure 5b” value [4] was 78.9386 and 88.4215 and 71.2191 and the “Raw data of Figure 5b” value [4] was 111.396 and 114.663 and 102.433. The “Normalized data of Figure 5b” value [5] was 100, the “Raw data of Figure 5b” value [5] was 141.118 and 129.678 and 143.828 and the “Raw data … vs CBPA11-v1-LD3v3” value [5] was 335.207 and 287.921 and 227.786. For the same molecule, the “Raw data … vs CBPA11-v1-LD3v3” value (CBPA11-v1-LD3v3, A-1155463 316 nM) was 270.923 and 196.943 and 173.263, the “Normalized data of Figure 5b” value [6] was 62.5942 and 62.3431 and 56.6992 and the “Raw data of Figure 5b” value [6] was 88.3315 and 80.8452 and 81.5497. The “Normalized data of Figure 5b” value [7] was 29.9151 and 30.048 and 29.0586, the “Raw data of Figure 5b” value [7] was 42.2154 and 38.9656 and 41.7945 and the “Raw data … vs CBPA11-v1-LD3v3” value [7] was 123.233 and 79.9582 and 97.1187. For the same molecule, the “Raw data … vs CBPA11-v1-LD3v3” value (CBPA11-v1-LD3v3, A-1155463 3160 nM) was 45.1078 and 32.2032 and 26.5323, the “Normalized data of Figure 5b” value [8] was 11.3098 and 14.9107 and 12.4987 and the “Raw data of Figure 5b” value [8] was 15.9601 and 19.3359 and 17.9766. For the same molecule, the “Normalized data of Figure 5b” value [9] was 8.9981 and 9.291 and 5.288, the “Raw data of Figure 5b” value [9] was 12.6979 and 12.0483 and 7.606 and the “Raw data … vs CBPA11-v1-LD3v3” value [9] was 23.0011 and 17.3094 and 15.2043. For the same molecule, the “Raw data of Independent repeat of CBPA11-v3 vs CBPA11-v3-LD3v3” value (“Raw data … vs CBPA11-v3-LD3v3” for short) (CBPA11-v3, A-1155463 0.01 nM) was 26.5862 and 23.5891 and 24.9373, the “Normalized data Figure 5e” value (CBPA11-v3, A-1155463 1 nM) was 14.7288 and 13.7384 and 12.9495 and the “Normalized data of Figure 5b” value (CBPA11-v3, A-1155463 1 nM) was 2.438 and 2.3416 and 2.8403. For the same molecule, the “Raw data of Figure 5b” value (CBPA11-v3, A-1155463 1 nM) was 13.0926 and 12.3286 and 14.9355, the “Raw data … vs CBPA11-v3-LD3v3” value (CBPA11-v3, A-1155463 1 nM) was 77.8998 and 72.2772 and 68.2722 and the “Raw data … vs CBPA11-v3-LD3v3” value (CBPA11-v3, A-1155463 3.16 nM) was 101.26 and 74.5174 and 69.017. For the same molecule, the “Normalized data Figure 5e” value (CBPA11-v3, A-1155463 3.18 nM) was 19.1455 and 14.1642 and 13.0908, the “Normalized data Figure 5e” value (CBPA11-v3, A-1155463 10 nM) was 52.8574 and 45.1451 and 43.5321 and the “Normalized data of Figure 5b” value (CBPA11-v3, A-1155463 10 nM) was 22.9212 and 24.7467 and 27.0042. For the same molecule, the “Raw data of Figure 5b” value (CBPA11-v3, A-1155463 10 nM) was 123.11 and 130.292 and 142, the “Raw data … vs CBPA11-v3-LD3v3” value (CBPA11-v3, A-1155463 10 nM) was 279.56 and 237.506 and 229.509 and the “Raw data … vs CBPA11-v3-LD3v3” value (CBPA11-v3, A-1155463 31.6 nM) was 420.603 and 418.534 and 369.593. The “Normalized data Figure 5e” value (CBPA11-v3, A-1155463 31.8 nM) was 79.525 and 79.5547 and 70.1024, the “Normalized data of Figure 5b” value (CBPA11-v3, A-1155463 31.8 nM) was 52.5804 and 56.6221 and 62.0483 and the “Raw data of Figure 5b” value (CBPA11-v3, A-1155463 31.8 nM) was 282.41 and 298.117 and 326.277. For the same molecule, the “Normalized data Figure 5e” value (CBPA11-v3, A-1155463 100 nM) was 93.7695 and 93.9386 and 100, the “Normalized data of Figure 5b” value (CBPA11-v3, A-1155463 100 nM) was 84.9271 and 84.8554 and 85.7543 and the “Raw data of Figure 5b” value (CBPA11-v3, A-1155463 100 nM) was 456.144 and 446.765 and 450.933. The “Normalized data Figure 5e” value (CBPA11-v3, A-1155463 318 nM) was 100 and 99.7629, the “Normalized data of Figure 5b” value (CBPA11-v3, A-1155463 318 nM) was 100 and the “Raw data of Figure 5b” value (CBPA11-v3, A-1155463 318 nM) was 537.1 and 526.502 and 525.843.

Reference: article PMC11062894, “Protein-based bandpass filters for controlling cellular signaling with chemical inputs” (Nature Chemical Biology, 2023)
